What was measured:
TYRO3 = molecular target: T1, TYRO3 (Homo sapiens, UniProt Q06418); assay: TR-FRET kinase activity assay, TYRO3; assay type: biochemical; conditions: ATP at Km, 60 minutes
T1 sequence (Q06418 41-890): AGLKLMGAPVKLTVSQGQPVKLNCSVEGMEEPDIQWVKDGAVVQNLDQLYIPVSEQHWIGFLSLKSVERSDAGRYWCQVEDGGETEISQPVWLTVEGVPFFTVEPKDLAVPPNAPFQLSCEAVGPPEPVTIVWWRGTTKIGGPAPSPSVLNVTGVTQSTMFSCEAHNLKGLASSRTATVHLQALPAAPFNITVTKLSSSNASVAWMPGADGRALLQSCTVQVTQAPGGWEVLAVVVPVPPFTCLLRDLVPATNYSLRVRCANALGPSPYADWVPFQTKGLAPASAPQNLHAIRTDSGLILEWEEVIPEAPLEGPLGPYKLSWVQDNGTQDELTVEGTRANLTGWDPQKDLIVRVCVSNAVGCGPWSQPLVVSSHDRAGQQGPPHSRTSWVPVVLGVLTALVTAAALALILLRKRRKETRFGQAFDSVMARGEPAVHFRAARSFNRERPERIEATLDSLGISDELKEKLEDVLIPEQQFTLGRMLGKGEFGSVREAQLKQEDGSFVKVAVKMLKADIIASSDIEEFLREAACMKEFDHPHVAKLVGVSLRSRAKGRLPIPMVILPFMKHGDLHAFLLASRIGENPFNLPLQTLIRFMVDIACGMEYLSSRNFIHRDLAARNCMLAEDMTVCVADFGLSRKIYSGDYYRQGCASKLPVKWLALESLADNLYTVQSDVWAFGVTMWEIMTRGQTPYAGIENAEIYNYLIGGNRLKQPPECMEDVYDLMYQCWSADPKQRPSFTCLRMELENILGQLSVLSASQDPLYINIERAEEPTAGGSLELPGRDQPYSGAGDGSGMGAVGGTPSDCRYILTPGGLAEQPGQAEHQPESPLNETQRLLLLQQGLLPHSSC
Outline: (§1)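 Each kinase phosphorylated a fluorescent-labelled tyrosine peptide in 50 mM HEPES pH 7.5, 10 mM MgCl2, 1 mM EGTA, 0.01% Brij 35, 1 mM DTT at RT, with ATP at Km for that enzyme. After 60 min, EDTA quench and Eu-anti-phosphotyrosine antibody (30 min, dark); IC50 from TR-FRET decrease.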

AXL = molecular target: T2, AXL (Homo sapiens, UniProt P30530); assay: TR-FRET kinase activity assay, AXL; assay type: biochemical; conditions: ATP at Km, 60 minutes
T2 sequence (P30530 26-894): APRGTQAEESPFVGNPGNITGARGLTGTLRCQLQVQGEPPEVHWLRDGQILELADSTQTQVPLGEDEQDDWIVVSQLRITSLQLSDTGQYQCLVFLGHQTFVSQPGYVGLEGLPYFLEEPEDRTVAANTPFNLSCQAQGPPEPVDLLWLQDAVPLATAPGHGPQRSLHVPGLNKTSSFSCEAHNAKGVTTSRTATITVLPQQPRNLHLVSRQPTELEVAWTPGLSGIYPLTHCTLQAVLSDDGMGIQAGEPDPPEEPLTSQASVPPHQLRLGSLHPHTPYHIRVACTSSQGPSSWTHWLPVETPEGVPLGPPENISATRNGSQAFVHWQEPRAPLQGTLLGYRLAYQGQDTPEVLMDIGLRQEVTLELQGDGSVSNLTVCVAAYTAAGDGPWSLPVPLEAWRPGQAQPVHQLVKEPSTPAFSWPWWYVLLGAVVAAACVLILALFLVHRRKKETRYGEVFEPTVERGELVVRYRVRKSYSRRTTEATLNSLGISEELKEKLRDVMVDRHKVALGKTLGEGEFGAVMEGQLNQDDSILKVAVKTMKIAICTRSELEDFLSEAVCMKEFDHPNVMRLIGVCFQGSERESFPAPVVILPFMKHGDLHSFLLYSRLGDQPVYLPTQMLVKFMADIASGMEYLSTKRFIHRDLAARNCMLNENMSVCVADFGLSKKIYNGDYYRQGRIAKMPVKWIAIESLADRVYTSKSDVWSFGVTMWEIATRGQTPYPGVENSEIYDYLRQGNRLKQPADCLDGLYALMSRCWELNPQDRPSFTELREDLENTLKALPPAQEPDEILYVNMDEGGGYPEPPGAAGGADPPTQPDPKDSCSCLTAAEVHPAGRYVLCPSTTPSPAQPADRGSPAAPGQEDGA
Outline: as §1

Row | IC50 (TYRO3) [µM] | IC50 (AXL) [µM] | SMILES
1 | ≤ 0.1 | ≤ 0.1 | COC[C@H](C)Nc1ncc2c(-c3cccc(N4C[C@H]5COC[C@H]5C4)c3)cc([C@H]3CC[C@H](O)CC3)n2n1 [Compound 464]
2 | ≤ 0.1 | ≤ 0.1 | COC[C@H](C)Nc1ncc2c(-c3cnn(C(C)(C)C(=O)N4CCN(C)CC4)c3)cc([C@H]3CC[C@H](O)CC3)n2n1 [Compound 466]
3 | ≤ 0.1 | ≤ 0.1 | COC[C@H](C)Nc1ncc2c(-c3cnn([C@H]4CCN(C)C4=O)c3)cc([C@H]3CC[C@H](O)CC3)n2n1 [Compound 470]
4 | ≤ 0.1 | ≤ 0.1 | COC[C@H](C)Nc1ncc2c(-c3cnn([C@@H]4CCN(C)C4=O)c3)cc([C@H]3CC[C@H](O)CC3)n2n1 [Compound 471]
5 | ≤ 0.1 | ≤ 0.1 | COC[C@H](C)Nc1ncc2c(-c3cnn(C[C@@H]4CC(=O)N(C)C4)c3)cc([C@H]3CC[C@H](O)CC3)n2n1 [Compound 473]
6 | ≤ 0.1 | ≤ 0.1 | COC[C@H](C)Nc1ncc2c(-c3cnn(C[C@@H]4CCO4)c3)cc([C@H]3CC[C@H](O)CC3)n2n1 [Compound 474]
7 | ≤ 0.1 | ≤ 0.1 | COC[C@H](C)Nc1ncc2c(-c3cnn(C[C@H]4CC(=O)N(C)C4)c3)cc([C@H]3CC[C@H](O)CC3)n2n1 [Compound 475]
8 | ≤ 0.1 | ≤ 0.1 | COC[C@H](C)Nc1ncc2c(-c3cnn(C[C@@H]4CCO4)c3)cc([C@H]3CC[C@H](O)CC3)n2n1 [Compound 478]
9 | ≤ 0.1 | ≤ 0.1 | COC[C@H](C)Nc1ncc2c(-c3ccnc(N4Cc5nc(C)sc5C4)c3)cc([C@H]3CC[C@H](O)CC3)n2n1 [Compound 479, (trans)-4-(2-(((S)-1-methoxypropan-2-yl)amino)-5-(2-(2-methyl-4H-pyrrolo[3,4-d]thiazol-5(6H)-yl)pyridin-4-yl)pyrrolo[2,1-f][1,2,4]triazin-7-yl)cyclohexanol]
10 | ≤ 0.1 | ≤ 0.1 | COC[C@H](C)Nc1ncc2c(-c3ccnc(N4CCOC5(COC5)C4)c3)cc([C@H]3CC[C@H](O)CC3)n2n1 [Compound 480]
11 | 0.1 to 1 | 1 to 10 | COC[C@H](C)Nc1ncc2c(C#N)cc([C@H]3CC[C@H](O)CC3)n2n1 [Compound 481]
12 | ≤ 0.1 | 0.1 to 1 | COC[C@H](C)Nc1ncc2c([C@H]3CC[C@@H](C(=O)N4CCOCC4)CC3)cc([C@H]3CC[C@H](O)CC3)n2n1 [Compound 484]
13 | ≤ 0.1 | ≤ 0.1 | COC[C@H](C)Nc1ncc2c(-c3ccnc(N4CCN(C5COC5)CC4)c3)cc([C@H]3CC[C@H](O)CC3)n2n1 [Compound 486]
14 | ≤ 0.1 | 0.1 to 1 | COC[C@H](C)Nc1ncc2c(-c3ccnc(N4CCN(S(=O)(=O)C(F)(F)F)CC4)c3)cc([C@H]3CC[C@H](O)CC3)n2n1 [Compound 487]
15 | ≤ 0.1 | ≤ 0.1 | COC[C@H](C)Nc1ncc2c(-c3cnn(C(C)(C)C(=O)N4CCOCC4)c3)cc(C3CCc4[nH]ncc4C3)n2n1 (stereo partly shown) [Compound 488]
16 | ≤ 0.1 | ≤ 0.1 | C[C@@H](CC(F)F)Nc1ncc2c(-c3ccc(S(C)(=O)=O)nc3)cc([C@H]3CC[C@H](O)CC3)n2n1 [Compound 489]
17 | ≤ 0.1 | ≤ 0.1 | COC[C@H](C)Nc1ncc2c(-c3ccnc(Oc4cccnc4)c3)cc([C@H]3CC[C@H](O)CC3)n2n1 [Compound 490]
18 | ≤ 0.1 | ≤ 0.1 | COC[C@H](C)Nc1ncc2c(-c3ccnc(N4CCN(S(=O)(=O)C5CC5)CC4)c3)cc([C@H]3CC[C@H](O)CC3)n2n1 [Compound 491]
19 | ≤ 0.1 | ≤ 0.1 | COC[C@H](C)Nc1ncc2c(-c3ccnc(N4CCC5(COC5)C4)c3)cc([C@H]3CC[C@H](O)CC3)n2n1 [Compound 493]
20 | ≤ 0.1 | ≤ 0.1 | COC[C@H](C)Nc1ncc2c(-c3cnn(C(C)(C)C(=O)N4Cc5nc(C)sc5C4)c3)cc([C@H]3CC[C@H](O)CC3)n2n1 [Compound 495]
21 | ≤ 0.1 | ≤ 0.1 | COC[C@H](C)Nc1ncc2c(-c3cnn(C(C)(C)C(=O)C4CCc5sc(C)nc5C4)c3)cc([C@H]3CC[C@H](O)CC3)n2n1 (stereo partly shown) [Compound 496]
22 | ≤ 0.1 | 0.1 to 1 | COC[C@H](C)Nc1ncc2c(CC#N)cc([C@H]3CC[C@H](O)CC3)n2n1 [Compound 497]
23 | ≤ 0.1 | ≤ 0.1 | COC[C@H](C)Nc1ncc2c(-c3cccc(C4CCc5nc(C)[nH]c5C4)c3)cc([C@H]3CC[C@H](O)CC3)n2n1 (stereo partly shown) [Compound 498]
24 | ≤ 0.1 | ≤ 0.1 | COC[C@H](C)Nc1ncc2c(-c3ccnc(N4CCN(C(=O)C5COC5)CC4)c3)cc([C@H]3CC[C@H](O)CC3)n2n1 [Compound 500]
25 | ≤ 0.1 | 0.1 to 1 | COC[C@H](C)Nc1ncc2c(-c3cnn(C4COC4)c3)cc(-c3ccc(O)nc3)n2n1 [Compound 501]
26 | ≤ 0.1 | 0.1 to 1 | COC[C@H](C)Nc1ncc2c(-c3cnn(C4COC4)c3)cc(-c3ccc(OC)cc3)n2n1 [Compound 502]
27 | ≤ 0.1 | 0.1 to 1 | COC[C@H](C)Nc1ncc2c(-c3cnn(C4COC4)c3)cc(C3CCOCC3)n2n1 [Compound 503]

Row | SMILES | IC50 (TYRO3) [µM] | IC50 (AXL) [µM]
28 | COC[C@H](C)Nc1ncc2c(C3=C[C@@H]4CC[C@H](C3)N4)cc([C@H]3CC[C@H](O)CC3)n2n1 [Compound 461] | ≤ 0.1 | ≤ 0.1
29 | COC[C@H](C)Nc1ncc2c(C3=C[C@@H]4CC[C@H](C3)N4C(C)=O)cc([C@H]3CC[C@H](O)CC3)n2n1 [Compound 462] | ≤ 0.1 | ≤ 0.1
30 | COC[C@H](C)Nc1ncc2c(C3=C[C@@H]4CC[C@H](C3)N4C(=O)N3CCOCC3)cc([C@H]3CC[C@H](O)CC3)n2n1 [Compound 463] | ≤ 0.1 | ≤ 0.1
31 | COC[C@H](C)Nc1ncc2c(C3=C[C@@H]4CC[C@H](C3)N4C)cc([C@H]3CC[C@H](O)CC3)n2n1 [Compound 465] | ≤ 0.1 | ≤ 0.1
32 | COC[C@H](C)Nc1ncc2c(C3=C[C@H]4CC[C@@H](C3)N4)cc([C@H]3CC[C@H](O)CC3)n2n1 [Compound 467] | ≤ 0.1 | ≤ 0.1
33 | COC[C@H](C)Nc1ncc2c(C3=C[C@H]4CCC(C3)N4C(C)=O)cc([C@H]3CC[C@H](O)CC3)n2n1 [Compound 468] | ≤ 0.1 | ≤ 0.1
34 | COC[C@H](C)Nc1ncc2c(C3=C[C@H]4CC[C@@H](C3)N4C(=O)N3CCOCC3)cc([C@H]3CC[C@H](O)CC3)n2n1 [Compound 469] | ≤ 0.1 | ≤ 0.1
35 | COC[C@H](C)Nc1ncc2c(C3=C[C@@H]4CC[C@H](C3)N4CC(F)(F)F)cc([C@H]3CC[C@H](O)CC3)n2n1 [Compound 485] | ≤ 0.1 | ≤ 0.1
36 | COC[C@H](C)Nc1ncc2c(C3=C[C@H]4CC[C@@H](C3)N4CC(F)(F)F)cc([C@H]3CC[C@H](O)CC3)n2n1 [Compound 492] | ≤ 0.1 | ≤ 0.1
37 | COC[C@H](C)Nc1ncc2c(C3=C[C@H]4CC[C@@H](C3)N4C)cc([C@H]3CC[C@H](O)CC3)n2n1 [Compound 494] | ≤ 0.1 | ≤ 0.1
38 | C[C@@H](CC(F)(F)F)Nc1ncc2c(C3=C[C@@H]4CC[C@H](C3)N4)cc([C@H]3CC[C@H](O)CC3)n2n1 [Compound 499] | ≤ 0.1 | ≤ 0.1

Source: patent publication US11040981B2, “Pyrrolotriazine compounds and methods of inhibiting TAM kinases” (Syros Pharmaceuticals, Inc., priority 2017, dated 2021)
